PMC10671360, “In Silico and In Vitro Study towards the Rational Design of 4,4′-Disarylbisthiazoles as a Selective α-Synucleinopathy Biomarker” (International Journal of Molecular Sciences, 2023)

Assays:
Aβ1−42 fibrils [1] = target: T1, Aβ1−42 fibrils (Homo sapiens, UniProt P05067); assay: Competition binding assay against [^3H]PiB, Aβ1−42 fibrils; conditions: read-out: Ki Aβ
T1 construct: 1 mg of β-amyloid1–42 peptide (Abcam, Cambridge, UK); purchased Abcam
Protocol: (§1) After the dissolution of 1 mg of β-amyloid1–42 peptide (Abcam, Cambridge, UK) in 50 μL of DMSO, 925 μL of Milli-Q® water was added to it, and the mixture was stirred. Finally, 25 μL of 1M Tris HCl, pH 7.4 was added to bring the final peptide concentration to 1 mg/mL. The mixture was then left to incubate at 37 °C for 30 h with shaking at 900 rpm. To separate the non-aggregated monomers from the formed fibrils, the reaction mixture was centrifuged at 12,000× g for 5 min, and the resulting pellet was washed three times with 500 μL of 20 mM Tris-HCl, pH 7.4. The supernatants from the three centrifugation steps were combined, and the concentration of the monomer in the resulting supernatant was determined in a BCA assay (Thermo Fisher Scientific, Waltham, MA, USA) (with a BSA standard curve). Determination of the concentration of fibrils formed was carried out by subtracting the amount of β-amyloid1−42 peptide monomer in the supernatant from the initial amount used for fibrillation.
(§2) The pellets of the fibrils obtained above (Section 4.2.1) were resuspended in 20 mM of Tris-HCl, pH 7.4 and diluted as needed for the binding assays.
(§3) A fixed concentration of [^3H]DCVJ (10 nM) and α-synuclein aggregates (125 nM), prepared as described above (Section 4.2.3), was used with different final concentrations of the DABTAs from 0.01 to 100 nM (see SI Figure S1). The experiment was carried out in quintuplicate for each concentration. The mixture was incubated for 2 h in a final volume of 200 μL per well after dilution with 20 mM of Tris-HCl, pH 7.4. The incubated mixtures were filtered through a Perkin Elmer GF/B glass filter via a TOMTEC cell harvester and immediately washed thrice with 1 mL of deionized water. The filters containing the bound ligands were dried and afterwards mixed with 3 mL of BetaPlate Scint solution (Perkin Elmer Life Sciences, Waltham, MA, USA) and left there for 2 h before counting in a Wallac 1450 MicroBeta TriLux Liquid Scintillation Counter (PerkinElmer Life Sciences, Waltham, MA, USA). For the determination of the inhibition constants, data were analyzed using GraphPad Prism software (version 7.0) to obtain IC50 values by fitting the data to the equation Y = bottom + (top − bottom)/(1 + 10(x − log IC50)). Ki values were calculated from IC50 values using the equation Ki = IC50/(1 + [radioligand]/Kd). […] Further protocol was carried out as for [^3H]DCVJ (see SI Figure S3).
Further procedures followed the same already described in Section 4.2.3.1 (See SI Figure S4).

[2] = target: T2, recombinant α-syn fibrils (Homo sapiens, UniProt P37840); assay: Competition binding assay against [^3H]DCVJ, α-syn fibrils; conditions: for Selectivity Aβ/α-syn / Selectivity tau/α-syn: ratio of Ki, [^3H]DCVJ was used
T2 construct: made in house
Protocol: The incubation of purified recombinant α-synuclein monomer (10 mg/mL) obtained as described by Uzuegbunam was carried out in PBS (pH 7.4) at 37 °C. The solution was left shaking at 900 rpm in an Eppendorf Thermomixer for up to 84 h. Determination of the concentration of the formed fibrils (α-syn) was carried out following the centrifugation of the reaction vial at 12,000× g for 5 min. The pellet obtained was washed thrice with 20 mM of Tris-HCl, pH 7.4. The supernatants from the three centrifugation steps were combined, and the concentration of the monomer in the resulting supernatant was determined in a BCA assay (Thermo Fisher Scientific, Waltham, MA, USA) (with a BSA standard curve). Determination of the concentration of α-syn was carried out by subtracting the amount of α-synuclein monomer in the supernatant from the initial amount used for fibrillation.
as §2, §3

Aβ1−42 fibrils [3] = target: T1, Aβ1−42 fibrils; assay: Competition binding assay against [^3H]DCVJ, Aβ1−42 fibrils; conditions: [^3H]DCVJ was used (10 nM); Aβ1−42 aggregates 125 nM; read-out: Ki Aβ
Protocol: as §1, §2, §3
Fixed concentrations (125 nM) of Aβ1−42, tau aggregates, and [^3H]DCVJ (10 nM and 20 nM for the Aβ1−42 and tau competition experiments respectively) were used with different concentrations of cold versions of the tracers from 1 to 1000 nM (See SI Figure S2). The experiment was performed in quadruplicate for each concentration. […]

[4] = [^3H]DCVJ was used (10 nM), α-synuclein aggregates 125 nM

T1 sequence (P05067 672-713): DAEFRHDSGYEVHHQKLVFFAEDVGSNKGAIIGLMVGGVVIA

| Ki (Aβ1−42 fibrils [1]) [nM] | Ki [2, 4] [nM] | Selectivity Aβ/α-syn [2] | Selectivity tau/α-syn [2] | Ki (Aβ1−42 fibrils [3]) [nM] | Ki α-syn [2, 4] | SMILES |
| --- | --- | --- | --- | --- | --- | --- |
| 214 | 1.36 | 299.1 | >735.3 | 407 |  | Fc1ncc(-c2csc(-c3nc(-c4cnc5c(c4)OCO5)cs3)n2)cn1 [d10] |
| 185 | 0.99 | 253.1 | 469.6 | 251 |  | FCCOc1cnc(-c2csc(-c3nc(-c4cnc5c(c4)OCO5)cs3)n2)nc1 [f4, 6-(4′-(5-(2-Fluoroethoxy)pyrimidin-2-yl)-[2,2′-bithiazol]-4-yl)-[1,3]dioxolo[4,5-b]pyridine] |
| 155 | 2.27 | 58.9 | 227.0 | 134 |  | FCCOc1cnc(-c2csc(-c3nc(-c4ccc5c(c4)OCO5)cs3)n2)nc1 [f5, 4-(Benzo[d][1,3]dioxol-5-yl)-4′-(5-(2-fluoroethoxy)pyrimidin-2-yl)-2,2′-bithiazole] |
| 96.7 | 0.5 | 395.6 | 874.4 | 198 | subnanomolar | FCCOCCOc1cnc(-c2csc(-c3nc(-c4ccc5c(c4)OCO5)cs3)n2)nc1 [f6, 4-(Benzo[d][1,3]dioxol-5-yl)-4′-(5-(2-(2-fluoroethoxy)ethoxy)pyrimidin-2-yl)-2,2′-bithiazole] |
